Converted amounts (≈) assume the structure as drawn.
Tested on: Mycobacterium immunogenum isolate
Test: not given
Conditions: Mycobacterium immunogenum isolate from MWF (ATCC 700506); cited from earlier work

Row | Structure (SMILES) | MIC [µg/mL]
1 | CO[C@@]1(NC(=O)Cc2cccs2)C(=O)N2C(C(=O)O)=C(COC(N)=O)CS[C@@H]21 [cefoxitin] | 64 (≈ 150 µM)
2 | CO[C@@]1(NC(=O)CSCC#N)C(=O)N2C(C(=O)O)=C(CSc3nnnn3C)CS[C@@H]21 [cefinetazole] | 64 (≈ 136 µM)
3 | NCC[C@H](O)C(=O)N[C@@H]1C[C@H](N)[C@@H](O[C@H]2O[C@H](CN)[C@@H](O)[C@H](O)[C@H]2O)[C@H](O)[C@H]1O[C@H]1O[C@H](CO)[C@@H](O)[C@H](N)[C@H]1O [amikacin] | 128 (≈ 219 µM)
4 | C[C@H]1c2cccc(O)c2C(=O)C2=C(O)[C@]3(O)C(=O)C(C(N)=O)=C(O)[C@@H](N(C)C)[C@@H]3[C@@H](O)[C@@H]21 [doxyxycline] | > 128
5 | Cc1cc(NS(=O)(=O)c2ccc(N)cc2)no1 [sulfamethoxazole] | > 64

Tested on: Mycobacterium immunogenum MWF isolates
Test: Anti-mycobacterial activity in MWF, plating on Mycoagar
Type: cell-based
Conditions: MCC added to a MWF 24 hours after the isothiazolones had been added
Procedure: The MWFs selected were fluids which had evidence of CMIT incompatibility. The MCC was added to the MWFs 24 hours before the CMIT was added; 24 hours after the CMIT was added; or in a mixture with the CMIT. This was done for each concentration of CMIT (7.5 and 15 ppm) and MCC (250 and 500 ppm). Controls consisted of no biocide and CMIT at 7.5 and 15 ppm. Stability of the isothiazolones was evaluated at time 0 and then after 24 and 48 hours by standard methods for detecting isothiazones. Plating for mycobacteria kill was performed with aliquots from time 0 and 48 hours.
Plating was performed on 100 mm petri dishes containing 20 mL of an appropriate agar. Two different formulations, both based on Plate Count Agar (standard methods for waste and waste water). The medium for recovery of Mycobacterium immunogenum is nutritionally supplemented with TWEEN 80 and glycerin and has three antibiotics (cyclohexamide, chloramphenicol, and gentimicin) to inhibit fungi and unwanted bacteria. This medium with agar is referred to herein as “Mycoagar.”
The MWFs selected were fluids which had evidence of CMIT incompatibility. The MCC was added to the MWFs 24 hours before the CMIT was added at 15 ppm. Stability was evaluated at time 0 and then after 24 and 48 hours by chemical analysis. Plating for mycobacteria kill was performed with aliquots from time O and after 48 hours.

Row | Structure (SMILES) | suppressing growth of the Mycobacterium immunogenum genotype
6 | O=C([O-])CC(O)(CC(=O)[O-])C(=O)O.[Cu+2] [MCC, disodium monocopper (II) citrate] | ineffective
